Measurements taken from patent US20180099931A1 (AbbVie S.à.r.l., priority 2016, published 2018).
Like-named read-outs stand apart in the source and are kept apart here.

Target: T1, F508delCFTR (Homo sapiens, UniProt P13569, DEL508-508)
T1 construct: expressed in transfected cells; host or cells: CFBE41o- human lung-derived epithelial cells (CFBE4lo-F508delCFTR-HRP), doxycycline-inducible
Assay: Cell Surface Expression-Horse Radish Peroxidase (CSE-HRP) Assay;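 as to Maximum % activity (with co-corrector): co-corrector and positive control are both the same reference corrector at 2 µM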;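 as to Maximum % activity (without co-corrector): percent of the 2 µM on-plate positive control corrector response above DMSO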
Format: cell-based
Details: for Maximum % activity (with co-corrector) / Emax: maximum at any tested concentration, normalized to on-plate positive control; for Emax: read-out: Maximum % activity (without co-corrector)
Description: Cell Surface Expression-Horse Radish Peroxidase (CSE-HRP) Assay;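 as to Maximum % activity (with co-corrector): co-corrector and positive control are both the same reference corrector at 2 µM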;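 as to Maximum % activity (without co-corrector): percent of the 2 µM on-plate positive control corrector response above DMSO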
The development was achieved by expressing the F508delCFTR mutation along with a horseradish peroxidase (HRP) in the fourth exofacial loop, and then measuring the HRP activity using luminescence readout from these cells, CFBE4lo-F508delCFTR-HRP, that were incubated overnight with the test corrector compounds, either without or with the co-corrector. […] The test compounds were then added either without or with a co-corrector at the required concentrations and further incubated for 18-24 hours at 33° C. The highest concentration tested was 20 μM with an 8-point concentration response curve using a 3-fold dilution in both the test compound without or with the co-corrector. Three replicate plates were run to determine one EC50. All plates contained negative controls (dimethyl sulfoxide, DMSO) and positive control (2 μM of 3-[(2R,4R)-4-({[1-(2,2-difluoro-1,3-benzodioxol-5-yl)cyclopropyl]carbonyl}amino)-7-methoxy-3,4-dihydro-2H-chromen-2-yl]benzoic acid) as well as on-plate concentration response of the positive control. […] The raw counts from the experiment were analyzed using Accelrys® Assay Explorer v3.3.
1−[3*SDPositive Control+3*SDNegative Control/Absolute(MeanPositive Control−MeanNegative Control)]
wherein “SD” is standard deviation.
The % activity measured at each of the 8 test concentrations of the test compound added either without or with a co-corrector (2 μM of 3-[(2R,4R)-4-({[1-(2,2-difluoro-1,3-benzodioxol-5-yl)cyclopropyl]carbonyl}amino)-7-methoxy-3,4-dihydro-2H-chromen-2-yl]benzoic acid) was normalized to the on-plate positive control using the following formulae:
% activity(Test compound without co-corrector)=[(test compound without co-corrector response−DMSO response)/(positive control response−DMSO response)]*100
% activity(Test compound with co-corrector)=[(test compound with co-corrector response−DMSO response)/(positive control response−DMSO response)]*100
The maximum % activity achieved for the test compound either without or with a co-corrector at any tested concentration is presented in Table 4 along with the respective EC50's calculated using the following general sigmoidal curve with variable Hill slope equation (described as Model 42 in the Accelrys® Assay Explorer v3.3 software):
General sigmoidal curve with concentration, response, top, bottom, EC50 and Hill slope. This model describes a sigmoidal curve with an adjustable baseline, a. The equation can be used to fit curves where response is either increasing or decreasing with respect to the independent variable, “x”.
“x” is a concentration of drug under test. “y” is the response. “a” is the maximum response, and “d” is the minimum response “c” is the inflection point (EC50) for the curve. That is, “y” is halfway between the lower and upper asymptotes when x=c. “b” is the slope-factor or Hill coefficient. The sign of b is positive when the response increases with increasing dose and is negative when the response decreases with increasing dose (inhibition).

[1] = test compound without co-corrector, read-out: EC50 (without co-corrector)
[2] = with co-corrector (2 μM of 3-[(2R,4R)-4-({[1-(2,2-difluoro-1,3-benzodioxol-5-yl)cyclopropyl]carbonyl}amino)-7-methoxy-3,4-dihydro-2H-chromen-2-yl]benzoic acid), read-out: EC50 (with co-corrector)
[3] = test compound without co-corrector
[4] = CSE-HRP, test compound without co-corrector, read-out: EC50 (without co-corrector)
[5] = CSE-HRP, with co-corrector (2 μM of 3-[(2R,4R)-4-({[1-(2,2-difluoro-1,3-benzodioxol-5-yl)cyclopropyl]carbonyl}amino)-7-methoxy-3,4-dihydro-2H-chromen-2-yl]benzoic acid), read-out: EC50 (with co-corrector)
[6] = CSE-HRP, with co-corrector (2 μM)

T1 sequence (P13569 with tags, fused parts or gaps DEL508-508): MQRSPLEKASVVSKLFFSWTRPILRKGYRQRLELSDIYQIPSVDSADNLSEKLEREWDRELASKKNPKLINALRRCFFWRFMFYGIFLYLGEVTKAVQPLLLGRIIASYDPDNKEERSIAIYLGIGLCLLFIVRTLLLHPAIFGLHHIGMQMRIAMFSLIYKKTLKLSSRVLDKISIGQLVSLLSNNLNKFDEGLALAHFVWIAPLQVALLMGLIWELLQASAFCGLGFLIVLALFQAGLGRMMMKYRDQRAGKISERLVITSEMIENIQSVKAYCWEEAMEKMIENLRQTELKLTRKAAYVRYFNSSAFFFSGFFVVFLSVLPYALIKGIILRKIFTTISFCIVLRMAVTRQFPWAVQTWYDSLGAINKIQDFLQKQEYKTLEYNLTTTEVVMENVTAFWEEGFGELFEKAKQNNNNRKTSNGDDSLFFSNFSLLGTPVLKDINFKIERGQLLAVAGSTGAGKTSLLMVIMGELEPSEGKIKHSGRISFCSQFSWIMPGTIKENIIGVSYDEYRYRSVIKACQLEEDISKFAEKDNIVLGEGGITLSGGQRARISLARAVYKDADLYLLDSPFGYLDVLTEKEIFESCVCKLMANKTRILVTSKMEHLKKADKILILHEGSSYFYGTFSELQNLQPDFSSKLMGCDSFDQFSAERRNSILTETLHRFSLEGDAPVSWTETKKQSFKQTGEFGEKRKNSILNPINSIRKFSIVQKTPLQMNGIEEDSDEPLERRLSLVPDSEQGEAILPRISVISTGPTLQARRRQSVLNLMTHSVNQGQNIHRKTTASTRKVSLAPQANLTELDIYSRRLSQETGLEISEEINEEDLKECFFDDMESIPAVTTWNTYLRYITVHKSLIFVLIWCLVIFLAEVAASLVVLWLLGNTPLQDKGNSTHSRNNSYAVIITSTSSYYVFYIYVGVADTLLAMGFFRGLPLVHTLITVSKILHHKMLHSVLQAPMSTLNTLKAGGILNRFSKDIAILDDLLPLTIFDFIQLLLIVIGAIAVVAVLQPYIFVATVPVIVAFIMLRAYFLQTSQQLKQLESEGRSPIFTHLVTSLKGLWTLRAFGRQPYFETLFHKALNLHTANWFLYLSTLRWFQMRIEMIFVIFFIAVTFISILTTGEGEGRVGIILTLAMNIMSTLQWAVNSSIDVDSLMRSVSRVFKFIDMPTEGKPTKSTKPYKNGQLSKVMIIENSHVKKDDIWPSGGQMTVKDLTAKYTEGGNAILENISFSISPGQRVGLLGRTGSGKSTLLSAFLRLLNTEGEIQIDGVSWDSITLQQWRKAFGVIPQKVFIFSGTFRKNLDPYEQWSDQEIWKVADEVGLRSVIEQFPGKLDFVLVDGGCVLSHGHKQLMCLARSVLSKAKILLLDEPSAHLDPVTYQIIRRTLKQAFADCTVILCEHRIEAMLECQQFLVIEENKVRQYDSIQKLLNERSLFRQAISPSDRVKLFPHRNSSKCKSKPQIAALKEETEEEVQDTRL

SMILES	EC50 [1]	EC50 [2]	Maximum % activity (with co-corrector) (with co-corrector (2 μM))	Emax (without co-corrector)	Emax [3]	Maximum % activity (with co-corrector) (with co-corrector (2 μM of 3-[(2R,4R)-4-({[1-(2,2-difluoro-1,3-benzodioxol-5-yl)cyclopropyl]carbonyl}amino)-7-methoxy-3,4-dihydro-2H-chromen-2-yl]benzoic acid))	EC50 [4]	EC50 [5]	Maximum % activity (with co-corrector) [6]	Emax (CSE-HRP, without co-corrector)
COc1ccc(C(F)(F)F)cc1CN[C@@H]1[C@@H](C(C)(C)C)[C@H](C(=O)O)N(C(=O)C2CCCCC2)[C@@H]1c1ccccc1N(C)C (racemic) [Example I-22]	1 to 10 µM	< 1 µM	+++ (≥350)	> 200%						
COc1cccc([C@@H]2[C@H](NCc3cc(C(F)(F)F)ccc3OC)[C@@H](C(C)(C)C)[C@H](C(=O)O)N2C(=O)C2CCCCO2)n1 (mixture of isomers) [Example I-23]	1 to 10 µM	1 to 10 µM	+++ (≥350)	< 100%						
COc1cc(C(F)(F)F)ccc1CN[C@@H]1[C@@H](C(C)(C)C)[C@H](C(=O)O)N(C(=O)C2C3COCC32)[C@@H]1c1ccccc1N(C)C (mixture of isomers) [Example I-24]	1 to 10 µM	1 to 10 µM	+++ (≥350)	> 200%						
COc1cc(C(F)(F)F)ccc1CN[C@@H]1[C@@H](C(C)(C)C)[C@H](C(=O)O)N(C(=O)C2CCCCO2)[C@@H]1c1ccccc1N(C)C (mixture of isomers) [Example I-25]	1 to 10 µM	< 1 µM	+++ (≥350)	> 200%						
COC(=O)N1CCC[C@@H](C(=O)N2[C@H](c3ccccc3)[C@H](Nc3cc(C(F)(F)F)cc(C)n3)[C@@H](C(C)(C)C)[C@@H]2C(=O)O)C1 (racemic) [Example I-27]	1 to 10 µM	1 to 10 µM	+++ (≥350)	> 200%						
COc1cc(C(F)(F)F)ccc1CN[C@@H]1[C@@H](C(C)(C)C)[C@H](C(=O)O)N(C(=O)OC(C)C)[C@@H]1c1cccnc1N(C)C (racemic) [Example I-28]	1 to 10 µM	1 to 10 µM	+++ (≥350)	> 200%						
COc1ccc(C(F)(F)F)cc1CN[C@@H]1[C@@H](C(C)(C)C)[C@H](C(=O)O)N(C(=O)OC(C)C)[C@@H]1c1cccnc1N(C)C (racemic) [Example I-29]	1 to 10 µM	1 to 10 µM	+++ (≥350)	> 200%						
COc1ccc(S(C)(=O)=O)cc1CN[C@@H]1[C@@H](C(C)(C)C)[C@H](C(=O)O)N(C(=O)C2CCCCC2)[C@@H]1c1ccccc1 (racemic) [Example I-30]	> 10 µM	> 10 µM	+ (<150)	< 100%						
CO[C@@H]1CCC[C@@H](C(=O)N2[C@H](c3ccccc3)[C@H](Nc3cc(C(F)(F)F)cc(C)n3)[C@@H](C(C)(C)C)[C@@H]2C(=O)O)C1 (racemic) [Example I-31]	1 to 10 µM	1 to 10 µM	+++ (≥350)	< 100%						
CC(C)c1ccccc1CN[C@@H]1[C@@H](C(C)(C)C)[C@H](C(=O)O)N(C(=O)C2CCCCC2)[C@@H]1c1ccccc1 (racemic) [Example I-35]	< 1 µM	< 1 µM	+++ (≥350)	< 100%						
COc1ncc(Cl)cc1CN[C@@H]1[C@@H](C(C)(C)C)[C@H](C(=O)O)N(C(=O)C2CCCCC2)[C@@H]1c1ccccc1 (racemic) [Example I-36]	1 to 10 µM	1 to 10 µM	+++ (≥350)	100 to 200%						
Cc1cc(C(F)(F)F)cc(N[C@@H]2[C@@H](C(C)(C)C)[C@H](C(=O)O)N(C(=O)C3CCC4(CC3)CC4)[C@@H]2c2ccccc2)n1 (racemic) [Example I-37]	> 10 µM	1 to 10 µM	++ (≥150 and <350)	< 100%						
COc1cc(C(F)(F)F)cc(N[C@@H]2[C@@H](C(C)(C)OC)[C@H](C(=O)O)N(C(=O)C3CCCCC3)[C@@H]2c2ccccc2)n1 (racemic) [Example I-38]	1 to 10 µM	1 to 10 µM	++ (≥150 and <350)	< 100%						
COc1ccc(Cl)cc1CN[C@H]1[C@H](C(C)(C)C)[C@@H](C(=O)O)N(C(=O)C2CCCCC2)[C@H]1c1ncccc1OC (racemic) [Example I-40]	> 10 µM	> 10 µM	+ (<150)	< 100%						
COc1ccc(C(F)(F)F)cc1CN[C@@H]1[C@@H](C(C)(C)C)[C@H](C(=O)O)N(C(=O)C(C)(C)OC)[C@@H]1c1ccccc1 (racemic) [Example I-41]	> 10 µM	1 to 10 µM	++ (≥150 and <350)	< 100%						
COc1ccc(C(C)(C)C)cc1CN[C@H]1[C@H](C(C)(C)C)[C@@](C)(C(=O)O)N(C(=O)C2CCCCC2)[C@H]1c1ccccc1 (racemic) [Example I-211]	> 10 µM	1 to 10 µM	+ (<150)	< 100%						
COCCS(=O)(=O)NC(=O)[C@H]1[C@H](C(C)(C)C)[C@@H](Nc2cc(C(F)(F)F)cc(C)n2)[C@@H](c2ccccc2)N1C(=O)C1CCCCC1 (racemic) [Example III-49, rac-(2R,3R,4R,5R)-3-(tert-butyl)-1-(cyclohexanecarbonyl)-N-((2-methoxyethyl)sulfonyl)-4-((6-methyl-4-(trifluoromethyl)pyridin-2-yl)amino)-5-phenylpyrrolidine-2-carboxamide]	> 10 µM	1 to 10 µM			< 100%	++ (≥150 and <350)				
COc1ccc(C(C)(C)C)cc1CN[C@H]1[C@H](C(C)(C)C)[C@@H](C(=O)O)N(C(=O)C2CCCCC2)[C@H]1c1cccn(C)c1=O (racemic) [Example III-228, rac-(2S,3S,4S,5S)-3-tert-butyl-4-{[(5-tert-butyl-2-methoxyphenyl)methyl]amino}-1-(cyclohexanecarbonyl)-5-(1-methyl-2-oxo-1,2-dihydropyridin-3-yl)pyrrolidine-2-carboxylic acid]	> 10 µM	> 10 µM	+ (<150)		< 100%					
COc1ccc(CN[C@@H]2[C@@H](C(C)(C)C)[C@H](C(=O)O)N(C(=O)C3CCCCC3)[C@@H]2c2ccccc2)c(OC)c1Cl (racemic) [II-3]							1 to 10 µM	1 to 10 µM	++ (≥150 and <350)	< 100%
CC(C)Oc1ccccc1CN[C@@H]1[C@@H](C(C)(C)C)[C@H](C(=O)O)N(C(=O)C2CCCCC2)[C@@H]1c1ccccc1 (racemic) [II-4]							1 to 10 µM	1 to 10 µM	+++ (≥350)	100 to 200%
CC(C)COc1ccccc1CN[C@@H]1[C@@H](C(C)(C)C)[C@H](C(=O)O)N(C(=O)C2CCCCC2)[C@@H]1c1ccccc1 (racemic) [II-5]							1 to 10 µM	1 to 10 µM	+++ (≥350)	< 100%
COc1ncccc1CN[C@@H]1[C@@H](C(C)(C)C)[C@H](C(=O)O)N(C(=O)C2CCCCC2)[C@@H]1c1ccccc1 (racemic) [II-6]							1 to 10 µM	1 to 10 µM	+++ (≥350)	100 to 200%
